This note sets out measurements from ChEMBL document CHEMBL3507680, “University of Dundee, Gates Library screen for HepG2 cell viability”.

A short description of the series: Human HepG2 cell viability assay in 384 well format. The series is classed as toxicity, cell-based. Also noted: dose 125 nL, time 70.5 hour; cytotoxicity at 70.5 h: concentration not given beside the values. Particulars: HepG2 cells, read-out: Inhibition.
On to `CNC(=O)CN([C@H]1C[C@H]2CCOC[C@H]2C1)S(=O)(=O)c1ccccc1`, for which the cytotoxicity at 70.5 h is -5.55%. Next, `O=C(O)CN(C(=O)c1ccccc1)[C@H]1C[C@H]2CCOC[C@H]2C1`: -10.1%; `OC[C@@H]1CN2CCN(c3ccccn3)C[C@@H]2[C@H]1c1ccccc1`: -7.31%; `CN1CC[C@H](N(Cc2ccccc2)Cc2ccccc2)C[C@H](O)C1`: 11.2%. Next, `CN1C[C@H](O)[C@]2(CCN(Cc3ccc(OC(F)(F)F)cc3)C2)S1(=O)=O`: -1.23%. `CN1C[C@H](O)[C@]2(CCN(Cc3ccc(F)c(F)c3)C2)S1(=O)=O`: the cytotoxicity at 70.5 h was 13.9%. On to `COc1ccc(CN2CC[C@@]3(C2)[C@H](O)CN(C)S3(=O)=O)cc1F`, for which the cytotoxicity at 70.5 h stood at 0.857%. Next, `OC[C@H]1CN2CCN(c3ccccn3)C[C@@H]2[C@@H]1c1ccccc1`: -5.54%; `O=S1(=O)[C@@H](c2ccccc2)[C@H](CO)CN1C1CC1`: -1.65%. For `O=C1c2ncccc2C(CCO)N1Cc1ccccc1` (centres undefined), the cytotoxicity at 70.5 h was -3.47%. For `CCCC(O)CN1CCC(=O)N(CCOC)Cc2cc3c(cc21)OCO3` (centres undefined) the value was 18.9%; for `COc1ccc2c(c1)CN(C)C(=O)CCN2CC(O)C(F)(F)F` (centres undefined), 11.9%. Regarding `CCCC(O)CN1CCC(=O)N(C)Cc2cc(F)ccc21` (centres undefined), the cytotoxicity at 70.5 h came out at 18.5%.

Take `CO[C@H]1C(=O)N(C)C2(CCNCC2)[C@@H]1C(=O)Nc1ccccc1`: the cytotoxicity at 70.5 h is -10.2%. In the case of `CCOC(=O)N1[C@@H](c2ccco2)[C@@H](CO)C[C@]12CCCCNC2=O`, the cytotoxicity at 70.5 h is -6.22%. Take `COc1ccc2c(c1)CN(Cc1ccco1)C(=O)CCN2`: the cytotoxicity at 70.5 h was -10%.

As for `O=C1CN(C(=O)C2CCCCC2)CC(O)CN1Cc1ccco1` (centres undefined), the cytotoxicity at 70.5 h is -4.93%. Next, `CC(C)CN1CC(O)CN(S(=O)(=O)c2ccccc2)CC1=O` (centres undefined): -10.6%; `C=C(C)COc1ccccc1NC(=O)N1CCCCC1CO` (centres undefined): 4.81%; `COC(=O)[C@H](CSC)Nc1nc(C2CCCC2)nc2c1cnn2C`: -8.48%. Regarding `COC(C)(C)CC(C)NCc1cc(-c2ccco2)on1` (centres undefined), the cytotoxicity at 70.5 h was -11.4%. Next, `CCC[C@H]1CN(S(=O)(=O)N(C)Cc2ccccc2)C[C@@H]1N`: 1.2%; `NC(=O)c1ccnc(N2CCCC(CO)(Cc3ccccc3)C2)c1` (centres undefined): -5.88%; `Nc1nc2c(c(NCC(c3cccnc3)N3CCOCC3)n1)CCCC2` (centres undefined): -12.1%. On to `Cc1ocnc1C(=O)N1CCN(C(=O)CC(C)C)[C@@H]2CS(=O)(=O)C[C@@H]21`, for which the cytotoxicity at 70.5 h was determined as 31.4%. Turning to `COc1cc(CNc2ccc(C)c(Cl)c2)ccc1OCC(N)=O`, the cytotoxicity at 70.5 h was -11.9%. With `O=C(NCCC1COc2ccccc2O1)c1ccc(-c2cn[nH]c2)nc1` (centres undefined), the cytotoxicity at 70.5 h worked out at 4.75%.

Turning to `O=C1CN(c2cc(-c3ccccc3F)nc3ccnn23)CCCN1`, the cytotoxicity at 70.5 h is -14.6%.

Consider `CCCc1nc(CN(CC)C(=O)c2onc3ccccc23)no1`, for which the cytotoxicity at 70.5 h is 17%. Take `CCc1nc(C)c(C(=O)NCC2COc3cc(OC)ccc3C2)o1` (centres undefined): the cytotoxicity at 70.5 h came to 42.6%.

With `Cc1ccc([C@H]2CN(C(C)C)C[C@@H]2NS(=O)(=O)N2CCOCC2)o1`, the cytotoxicity at 70.5 h was -5.29%. Next, `OC1(CN2CCCC2)COCCN(c2nccs2)C1` (centres undefined): 37.8%. As for `COc1ccc(CN2C[C@@H](CN(C)C)[C@@H](CO)C2)c(Cl)c1OC`, the cytotoxicity at 70.5 h is -7.01%. For the molecule `Cc1nccc(N[C@H]2CN(CC(C)(C)N3CCOCC3)C[C@@H]2C2CC2)n1`, the cytotoxicity at 70.5 h was determined as 20.2%. For `CC(C)c1nc(C2CCCN(C(=O)CCCn3cccn3)C2)no1` (centres undefined) the value was -4.14%; for `Fc1ccc(-c2nnc(CN3CCCC3Cn3cccn3)o2)cc1` (centres undefined), -19.8%; for `Clc1ccccc1-c1nnc(CN2CCCC2Cn2cncn2)o1` (centres undefined), -2.55%.

Turning to `CCC(O)CN1CCN(C(=O)c2cc3ccccc3n2CC)CC1` (centres undefined), the cytotoxicity at 70.5 h is 12.7%. Next, `CC(C)OCCCNC(=O)CS(=O)(=O)Cc1ccc(C(C)C)cc1`: -0.615%; `CC(C)OCCCNC(=O)CS(=O)(=O)Cc1ccc(C(C)(C)C)cc1`: -5.34%. Next, `CC(C)CS(=O)(=O)CC(=O)NC1CCCCNC1=O` (centres undefined): -7.58%; `CCN(CC)S(=O)(=O)N(CC)Cc1ccc2c(c1)OCCO2`: -10.6%; `CCC(CC)c1nnc(NC(=O)NC(C)Cn2cccn2)s1` (centres undefined): 12.3%. In the case of `CN(C)c1ncccc1CNC(=O)NCc1ccc(Cl)s1`, the cytotoxicity at 70.5 h is -10.4%. For `Cc1nnc(NC(=O)NC(C)Cn2cccn2)s1` (centres undefined) the value was -7.53%; for `CC(NC(=O)NCc1cccs1)c1ccc2c(c1)CCC(=O)N2` (centres undefined), -4.6%; for `CN(C)c1ncccc1CNC(=O)NCc1cccs1`, 1.41%.

In the case of `COC(=O)C(NC(=O)CCOC(C)C)c1cc(F)ccc1F` (centres undefined), the cytotoxicity at 70.5 h came out at 18.1%. Regarding `COC(=O)C(NC(=O)C1CC1)c1cc(F)ccc1F` (centres undefined), the cytotoxicity at 70.5 h was -0.233%. Next, `CCOCC(O)CN1CCN(C(=O)c2ccccc2F)CC1` (centres undefined): -1.86%. For `CCNc1cc2c(nn1)CCN(C(=O)c1cccc3c1OCO3)C2` the value was 3.22%; for `CNc1cc2c(nn1)CCN(C(=O)c1ccc3c(c1)OCO3)C2`, -8.95%; for `Nc1cc2c(nn1)CCN(C(=O)c1cccc3c1OCO3)C2`, 2.4%.

With `Cc1cnn(CCC(=O)N2CCCC(c3noc(C)n3)C2)c1` (centres undefined), the cytotoxicity at 70.5 h came out at 1.71%. Next, `O=C(CCN1CCOC(CNc2cccnn2)C1)NC1CCCCC1` (centres undefined): 11.1%; `NC(=O)C1CCN(C(=O)c2cccn2Cc2cccs2)CC1`: -4.99%; `CC(NC(=O)NCCS(C)(=O)=O)c1ccc2c(c1)CCC(=O)N2` (centres undefined): 2.87%. As for `Cc1nc(C)c(CN2CCC(N(C)Cc3noc(C4CC4)n3)C2)s1` (centres undefined), the cytotoxicity at 70.5 h stood at 21.6%.

For `Cc1csc(C2CCCCN2C(=O)c2cn[nH]c2C)n1` (centres undefined), the cytotoxicity at 70.5 h amounted to 16.7%. For `CCc1cnc(CN2CCC(N(C)Cc3noc(C)n3)C2)o1` (centres undefined), the cytotoxicity at 70.5 h stood at 17%. Regarding `Cc1nn(C)c(C)c1C1CCCN1C(=O)CCCNc1ncccn1` (centres undefined), the cytotoxicity at 70.5 h was -8.51%. Next, `CNS(=O)(=O)c1cccc(C(=O)N(C)Cc2ccsc2)c1`: -7.55%; `Cc1nn(C)c(C)c1C1CCCN1C(=O)CCCc1ccccn1` (centres undefined): -4.63%; `CC(=O)NCc1ccc(C(=O)N2CCCC2c2cnn(C)c2)cc1` (centres undefined): -6.89%. Next, `CN(Cc1ccccc1)C(=O)CN1CCCC(Cn2cncn2)C1` (centres undefined): -7.31%; `COc1ccc(CCNC(=O)N2CCCC(c3nncn3C)C2)cc1` (centres undefined): -4.56%; `Cc1nc(CN(C)C2CCN(Cc3cnc(C)s3)C2)no1` (centres undefined): -3.46%. In the case of `Cc1nnc(NC(=O)NCc2ccc(F)cc2)s1`, the cytotoxicity at 70.5 h was -1.95%. Next, `Cc1nnc(NC(=O)NCc2ccc(N3CCC(C)CC3)nc2)s1`: -8.92%; `Cc1nnc(NC(=O)NCc2ccc(N3CCOCC3)nc2)s1`: -5.81%; `CCN(CC)CCn1c(NC(=O)c2scnc2C)nc2ccccc21`: 5.56%. `Cn1cnnc1C1CCCN(C(=O)NCCn2ccnc2)C1` (centres undefined): the cytotoxicity at 70.5 h was -10.4%. Next, `CCOCCCn1c(NC(=O)c2ccnc(C)n2)nc2ccccc21`: 25.9%; `CN(Cc1ccco1)C(=O)CN1CCCC1Cn1cncn1` (centres undefined): 3.18%; `Cc1ccc(CN(C)C(=O)CN2CCCC(Cn3cncn3)C2)cc1` (centres undefined): 22.9%. Next, `Cc1csc(C2CCCCN2C(=O)c2cc(C3CC3)[nH]n2)n1` (centres undefined): -2.5%; `CC(=O)N1CCCC1C(=O)NCCOc1c(C)cccc1C` (centres undefined): -1.77%. For the molecule `CCc1nc2n(n1)CC(NCc1cc(OC)c3c(c1)OCO3)CC2` (centres undefined), the cytotoxicity at 70.5 h was 1.22%. Next, `CN(CC(C)(C)O)C1CCCN(Cc2noc(C3CC3)n2)C1` (centres undefined): 41.7%. As for `Cc1cnn(CC(C)NCC(=O)NCCOc2ccccc2)c1` (centres undefined), the cytotoxicity at 70.5 h was found to be 11.7%. For `Cc1cnn(CCNCC(=O)NCCOc2ccc(F)cc2)c1` the value was -9.5%; for `CC(C)c1ncncc1C(=O)N1CCCN(Cc2ccccc2)CC1`, -15.3%; for `c1ccc(Cc2noc(CN3CCc4c(ncn4C4CC4)C3)n2)cc1`, 11.8%. Regarding `Cc1cc(CN2CCN(C(=O)NCc3csc(C)n3)CC2)on1`, the cytotoxicity at 70.5 h is -13%. As to `O=C(NCCNc1ncccn1)c1ccc(Br)cc1`, the cytotoxicity at 70.5 h was -15.1%. Next, `Cc1cc(CN2CCN(C(=O)NCc3cccs3)CC2)on1`: -14.6%. On to `Cc1cccc(CN(Cc2nc3c(cnn3C)c(=O)[nH]2)C2CC2)c1`, for which the cytotoxicity at 70.5 h is -6.88%.

As for `CN(Cc1ccc2c(c1)OCCO2)Cc1nc2c(cnn2C)c(=O)[nH]1`, the cytotoxicity at 70.5 h was -5.53%. Regarding `CC(C)OCCCNC(=O)CN1C=Nc2ccccc2S1(=O)=O`, the cytotoxicity at 70.5 h is -7.79%. Take `CCCNC(=O)NC(=O)CN1C=Nc2ccccc2S1(=O)=O`: the cytotoxicity at 70.5 h was -11.8%. Next, `Cc1noc(Cl)c1CCC(=O)N1CCN(c2ccccc2)CC1`: 7.33%. Regarding `O=C(CN1C=Nc2ccccc2S1(=O)=O)NCC1CC1`, the cytotoxicity at 70.5 h was -7.99%. In the case of `COc1cc(CCC(=O)NC2CCCN(C)C2)ccc1OCC(F)(F)F` (centres undefined), the cytotoxicity at 70.5 h was -7.07%.

With `CCc1ncncc1C(=O)N1CCN(Cc2ccsc2)CC1`, the cytotoxicity at 70.5 h is 7.59%. For `Cc1cc(NC(=O)CN2CCCC2Cn2nc(C)nc2C)on1` (centres undefined) the value was -6.45%.

As to `Cc1cnn(C2CN(CC(=O)NCCOc3ccccc3)C2)c1`, the cytotoxicity at 70.5 h was -4.92%. For the molecule `O=C(COC1CCCCC1)NS(=O)(=O)c1ccc2c(c1)OCCCO2`, the cytotoxicity at 70.5 h worked out at 13.6%. Next, `Cc1cc(CN2CCN(C(=O)NCCc3csc(C)n3)CC2)on1`: -11.6%.

Consider `O=C(COC1CCCC1)NS(=O)(=O)c1ccc2c(c1)OCCCO2`, for which the cytotoxicity at 70.5 h was -6.27%.
